What all share (type): cell-based
Experiment [1] has as its target T1, ENL (Homo sapiens, UniProt Q03111).
T1 construct: Cells were lysed and expression of endogenous ENL was assessed by Western blot analysis; host or cells: MV4;11
T1 sequence (Q03111 1-559): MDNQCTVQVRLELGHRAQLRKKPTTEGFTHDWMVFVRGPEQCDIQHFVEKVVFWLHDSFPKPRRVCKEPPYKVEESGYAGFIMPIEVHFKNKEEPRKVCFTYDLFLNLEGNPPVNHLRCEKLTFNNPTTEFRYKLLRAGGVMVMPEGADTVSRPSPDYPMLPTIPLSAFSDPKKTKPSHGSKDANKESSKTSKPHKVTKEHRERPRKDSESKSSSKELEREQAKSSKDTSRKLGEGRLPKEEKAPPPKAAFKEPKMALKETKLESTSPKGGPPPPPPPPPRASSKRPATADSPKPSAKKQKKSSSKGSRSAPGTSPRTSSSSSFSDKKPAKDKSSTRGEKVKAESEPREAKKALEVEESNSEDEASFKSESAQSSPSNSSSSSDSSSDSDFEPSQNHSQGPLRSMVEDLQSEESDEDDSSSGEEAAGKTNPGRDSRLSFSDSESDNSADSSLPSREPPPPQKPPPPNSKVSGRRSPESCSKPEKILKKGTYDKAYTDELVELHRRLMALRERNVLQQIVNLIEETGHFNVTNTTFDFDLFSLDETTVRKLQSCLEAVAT
Briefly: Western blot of ENL protein levels in Jurkat cells. Conditions: for ENL protein level after long treatment: 1 μM for 48 and 72 h; for reduction of ENL protein levels: 1 nM to 10 μM for 6 h. From the text:
[…] DMSO was used as negative control.
(§1) After ENL degrader treatment, cells were collected, lysed, and total cell lysates were used for Western blot. The following primary antibodies were used: ENL (Cell Signaling Technology), GAS41 (Santa Cruz), GAPDH (Santa Cruz), β-actin (Sigma). Blots were detected using HRP-conjugated secondary antibodies.

Experiment [2] concerns the target T1, ENL. Briefly: Western blot of ENL protein levels in MV4; 11 cells. Particulars: 11 cells; for effect of proteasome inhibitor MG132 on the ENL degradation induced by the degrader: 1 μM degrader with or without 1 μM MG132 for 6 h; for ENL protein level after long treatment: 1 μM for 48 and 72 h; for reduction of ENL protein levels: 1 nM to 10 μM for 6 h. How it is done: MV4; 11 cells were treated with DMSO or the indicated compounds (the same panel of ENL degraders as shown in FIG. 4) at 1 μM and 10 μM for 24 h. Cells were lysed and expression of ENL was assessed by Western blot analysis.
DMSO treated cells were used as control.
MV4; 11 cells were treated with LQ076-122, or LQ081-107 at 0.3, 1, 3, 10, and 30 μM for 24 h. DMSO treated cells were used as control. Cells were lysed and expression of ENL and GAS41 was assessed by Western analysis.
MV4; 11 cells were treated with DMSO or the indicated compounds at 1 μM and 10 μM for 6 h. Cells were lysed and expression of endogenous ENL was assessed by Western blot analysis.
Cells were treated with 1 μM of ENL degrader with or without 1 μM proteasome inhibitor MG132 for 6 h.
(§2) ENL degraders were dissolved in DMSO. DMSO with no degraders was used as the control. 1×10^6 leukemia cells were seeded in 5 mL medium. For prescreening of compounds, each test compound was added to the medium at 1 μM and 10 μM. Cells were collected after 24 h treatment. For the concentration-dependent treatment, candidate compounds were added to the medium at a series of concentration as indicated in figures. Cells were collected after 24 h treatment. For the time-course treatment, candidate compounds were added to the medium at a final concentration of 4 μM (MV4; 11 cells) or 8 μM (MOLM13 cells). Cells were collected at the indicated timepoints (in hours: 12, 16, 20, 24 and 36 h).
as §1

The subject of experiment [3] is ENL-dependent MV4; 11 cells. Briefly: Cell viability (CellTiter-Glo), MV4; 11 cells. Particulars: 11 cells, 1.25, 2.5, 5 and 10 μM for 72 h. How it is done:
MV4; 11 (FIG. 13A), MOLM13 (FIG. 13B) and Jurkat (FIG. 13C) cells were seeded at 2×10^5 cells/mL density and treated with DMSO or indicated compounds 0.5, 1, 2 and 4 μM for 72 h. Cell viability was measured using CellTiter-Glo reagent (Promega) and relative cell viability was calculated by normalization to DMSO samples.
ENL-dependent MV4; 11 cells were seeded at 2×10^5 cells/mL density and treated with DMSO or the indicated compounds at 0, 1.25, 2.5, 5 and 10 μM for 72 h. Cell viability was measured using CellTiter-Glo reagent (Promega) and relative cell viability was calculated by normalization to DMSO samples.
ENL-dependent MV4; 11 and ENL-independent Jurkat cells were seeded at 2×10^5 cells/mL density and treated with DMSO or indicated compounds at 10 nM, 100 nM, 1 μM and 10 μM for 3 days (A) or 6 days (B). Cell viability was measured using CellTiter-Glo reagent (Promega) and relative cell viability was calculated by normalization to DMSO samples.
MV4; 11 or MOLM13 cells were seeded at 0.2×10^6 cells/mL density. Cells were treated with DMSO or ENL degraders at indicated concentrations. Each treatment was done in triplicates. After 72 h treatment, 100 μL of cell suspension from each treatment was mixed with 25 μL of CellTiter-Glo reagent (Promega) and incubated for 10 min before the luminescence signals were detected on a plate reader.
(Cellular ATP, detected with luciferase, serves as a proxy for viable cell number.)

Experiment [4] has as its target T1, ENL. Briefly: Western blot of ENL protein levels in MOLM13 cells. Particulars: for ENL protein level after long treatment: 1 μM for 48 and 72 h; for reduction of ENL protein levels: 1 nM to 10 μM for 6 h. The method, then: MOLM13 cells were treated with LQ076-122 or LQ081-108 at 0, 0.25, 0.5, 1, 1.5, 2, 2.5, 3, 4 and 8 μM for 24 h.
MOLM13 cells were treated with DMSO or 8 μM of LQ076-122 for 12, 16, 20, 24 and 36 h.
MV4; 11, MOLM13 and Jurkat cells were treated with LQ108-69, LQ108-71, LQ108-72, LQ126-62 and LQ126-63 at 0, 1 nM, 10 nM, 100 nM, 1 μM, and 10 μM doses for 6 h. DMSO was used as negative control.
as §2, §1
(In western blotting, separated proteins are transferred to a membrane and probed.)

On to `Cc1ncsc1-c1ccc([C@H](CC(=O)NCCCCCCCNC(=O)c2ccc3c(c2)[C@H](NC(=O)c2cc(-c4ccc(C(=O)N(C)C)c(O)c4)on2)CC3)NC(=O)[C@@H]2C[C@@H](O)CN2C(=O)[C@@H](NC(=O)C2(F)CC2)C(C)(C)C)cc1` [LQ108-70, 5-(4-(dimethylcarbamoyl)-3-hydroxyphenyl)-N—((R)-6-((7-((S)-3-((2S,4R)-1-((S)-2-(1-fluorocyclopropane-1-carboxamido)-3,3-dimethylbutanoyl)-4-hydroxypyrrolidine-2-carboxamido)-3-(4-(4-methylthiazol-5-yl)phenyl)propanamido)heptyl)carbamoyl)-2,3-dihydro-1H-inden-1-yl)isoxazole-3-carboxamide], for which the “ENL protein level after long treatment” value in experiment [1], in experiment [2] and in experiment [4] was “maintained the ENL protein at low levels” throughout. Moreover, the “effect of proteasome inhibitor MG132 on the ENL degradation induced by the degrader” value in experiment [2] was “partially blocks the ENL degradation”. For the same molecule, in experiment [3], the “suppression of cell growth (relative cell viability)” value is reported as “significantly suppressed MV4; 11 cell growth at low micromolar concentration”.
Take `Cc1ncsc1-c1ccc([C@H](CC(=O)NCCCCCCCCNC(=O)c2ccc3c(c2)[C@H](NC(=O)c2cc(-c4ccc(C(=O)N(C)C)c(O)c4)on2)CC3)NC(=O)[C@@H]2C[C@@H](O)CN2C(=O)[C@@H](NC(=O)C2(F)CC2)C(C)(C)C)cc1` [LQ108-71, 5-(4-(dimethylcarbamoyl)-3-hydroxyphenyl)-N—((R)-6-((8-((S)-3-((2S,4R)-1-((S)-2-(1-fluorocyclopropane-1-carboxamido)-3,3-dimethylbutanoyl)-4-hydroxypyrrolidine-2-carboxamido)-3-(4-(4-methylthiazol-5-yl)phenyl)propanamido)octyl)carbamoyl)-2,3-dihydro-1H-inden-1-yl)isoxazole-3-carboxamide]: the “reduction of ENL protein levels” value in experiment [1], in experiment [2] and in experiment [4] was “reduced ENL protein levels in a concentration-dependent manner” each time. Besides, the “ENL protein level after long treatment” value in experiment [1], in experiment [2] and in experiment [4] was “maintained the ENL protein at low levels” in each case. For the same molecule, the “suppression of cell growth (relative cell viability)” value in experiment [3] is “significantly suppressed MV4; 11 cell growth at low micromolar concentration”.
Take `Cc1ncsc1-c1ccc([C@H](CC(=O)NCCCCCCCCCNC(=O)c2ccc3c(c2)[C@H](NC(=O)c2cc(-c4ccc(C(=O)N(C)C)c(O)c4)on2)CC3)NC(=O)[C@@H]2C[C@@H](O)CN2C(=O)[C@@H](NC(=O)C2(F)CC2)C(C)(C)C)cc1` [LQ108-72, 5-(4-(dimethylcarbamoyl)-3-hydroxyphenyl)-N—((R)-6-((9-((S)-3-((2S,4R)-1-((S)-2-(1-fluorocyclopropane-1-carboxamido)-3,3-dimethylbutanoyl)-4-hydroxypyrrolidine-2-carboxamido)-3-(4-(4-methylthiazol-5-yl)phenyl)propanamido)nonyl)carbamoyl)-2,3-dihydro-1H-inden-1-yl)isoxazole-3-carboxamide]: the “reduction of ENL protein levels” value in experiment [1], in experiment [2] and in experiment [4] was “reduced ENL protein levels in a concentration-dependent manner” in each case. In addition, the “ENL protein level after long treatment” value in experiment [1], in experiment [2] and in experiment [4] was “maintained the ENL protein at low levels” each time. The “suppression of cell growth (relative cell viability)” value in experiment [3] was “significantly suppressed MV4; 11 cell growth at low micromolar concentration”.
Turning to `Cc1ncsc1-c1ccc(CNC(=O)[C@@H]2C[C@@H](O)CN2C(=O)[C@@H](NC(=O)CCCCCCCCCNC(=O)c2ccc3c(c2)[C@H](NC(=O)c2cc(-c4ccc(C(=O)N(C)C)c(O)c4)on2)CC3)C(C)(C)C)cc1` [LQ126-62, 5-(4-(dimethylcarbamoyl)-3-hydroxyphenyl)-N—((R)-6-((10-(((S)-1-((2S,4R)-4-hydroxy-2-((4-(4-methylthiazol-5-yl)benzyl)carbamoyl)pyrrolidin-1-yl)-3,3-dimethyl-1-oxobutan-2-yl)amino)-10-oxodecyl)carbamoyl)-2,3-dihydro-1H-inden-1-yl)isoxazole-3-carboxamide], the “reduction of ENL protein levels” value in experiment [1], in experiment [2] and in experiment [4] was “reduced ENL protein levels in a concentration-dependent manner” throughout. The “ENL protein level after long treatment” value in experiment [1], in experiment [2] and in experiment [4] was “maintained the ENL protein at low levels” throughout. The “effect of proteasome inhibitor MG132 on the ENL degradation induced by the degrader” value in experiment [2] is “partially blocks the ENL degradation”. For the same molecule, in experiment [3], the “suppression of cell growth (relative cell viability)” value was “significantly suppressed MV4; 11 cell growth at low micromolar concentration”.

The values above are taken from patent US20230391765A1, “HETEROBIFUNCTIONAL COMPOUNDS AS DEGRADERS OF ENL” (ICAHN SCHOOL OF MEDICINE AT MOUNT SINAI, priority 2020, published 2023).
